The results in this text go back to patent publication US10562914B2, “Imidazoles as histone demethylase inhibitors” (Istituto Europeo di Oncologia S.r.l., priority 2016, dated 2020).

Structures can show the parent of a compound that is named as a salt.

Assay [1] deals with T1, human recombinant KDM1A/CoREST protein (Homo sapiens, UniProt O60341).
T1 construct: made in house; host or cells: E. coli
Kind of assay: Assay of enzyme inhibition of KDM1A (LSD1), TR-FRET. It counts as biochemical. Conditions: 0.25 nM KDM1A/CoREST, 50 nM H3K4 monomethylated peptide, 20 min at RT. The method, then:
2.1 Assay of Enzyme Inhibition of KDM1A (LSD1)
The intensity of the light emission is proportional to the level of biotinylated reaction product. The complex of human recombinant KDM1A/CoREST protein was produced in E. coli as separate proteins and co-purified as previously described.
Demethylase reaction was started by the addition of 50 nM histone H3K4 monomethylated.
The resulting mixture was incubated in the dark for 1 h at RT. Then, TR-FRET signal was read by a fluorimeter (Infinite® F200, Tecan, Männedorf, Swirzerland) (Excitation 320 nm, Emission 665 nm and 620 nm, delay time 50 μs, window time 100 μs).
The inhibitor concentrations ranged from 0.025 to 500 μM (serial 1:3 dilutions). The IC50 was calculated using GraphPad Software.
Background: Time-resolved FRET reads energy transfer from a long-lived donor to a nearby acceptor.

Assay [2] relates to Human leukemia MV4-11 cells. Kind of assay: Cell growth, CellTiter-Fluor viability assay, MV4-11. It counts as cell-based. The conditions noted are these: 48 h incubation, read-out: IC50 against human leukemia MV4-11 cells. An excerpt: (§1) CellTiter-Flor® (Promega) is as a nonlytic, single-reagent-addition fluorescence assay that measures the relative number of living cells in a culture population after experimental manipulation. The CellTiter-Fluor™ Cell Viability Assay measures the conserved and constitutive protease activity within live cells and therefore acts as a marker for cell viability.
(§2) Human leukemia MV4-11 cells, (obtained from the Deutsche Sammlung von Mikroorganismen und Zellkulturen, ACC 102) or NB4 cells, (obtained from the Deutsche Sammlung von Mikroorganismen und Zellkulturen) in exponential growth, were incubated for 48 h with different concentrations of the inhibitors. After 48 h a volume of CellTiter-Fluor® Reagent equal to one fifth of volume of cell culture medium was added. The content was mixed and incubates for at least 90 min at 37° C. degree to obtain a stable signal. The fluorescence was recorded using an excitation wavelength of 360 nm and an emission at 535 nm. The IC50 was calculated using GraphPad Software.

The subject of assay [3] is human leukemia NB4 cells. The assay is described as follows: Cell growth, CellTiter-Fluor viability assay, NB4. Format: cell-based. Conditions: NB-4, 48 h incubation, read-out: IC50 against human leukemia NB4 cells.
Text: as §1, §2

In general, IC50 refers to the point on the concentration scale where inhibition reaches its midpoint. For the molecule `CCc1cn(CCOc2ccc(OCC3CCNC3)cc2)c(-c2cc3sccc3n2C)n1` (stereo not drawn) [Example 22, 5-[4-ethyl-1-[2-[4-(pyrrolidin-3-ylmethoxy)phenoxy]ethyl]imidazol-2-yl]-4-methyl-thieno[3,2-b]pyrrole hydrochloride], the figures for the IC50 in assay [1], in assay [2] and in assay [3] were below 100 nM, below 10 µM and below 20 µM, respectively.

With `CCc1c(-c2ccccc2)nc(-c2cc3sccc3n2C)n1CCOc1ccc(OC2CCNCC2)cc1` [Example 31, 5-[5-ethyl-4-phenyl-1-[2-[4-(4-piperidyloxy)phenoxy]ethyl]imidazol-2-yl]-4-methyl-thieno[3,2-b]pyrrole], the IC50 is below 100 nM in assay [1], below 10 µM in assay [2] and below 20 µM in assay [3].

For the molecule `CCc1cn(CCOc2ccc(OCC3CCNCC3)cc2)c(-c2cc3sccc3n2C)n1` [Example 23, 5-[4-ethyl-1-[2-[4-(4-piperidylmethoxy)phenoxy]ethyl]imidazol-2-yl]-4-methyl-thieno[3,2-b]pyrrole hydrochloride], the IC50 in assay [1] was below 100 nM; in assay [2], below 10 µM; in assay [3], below 20 µM.

Take `CCc1cnc(-c2cc3sccc3n2C)n1CCCc1ccc(OC2CCNCC2)cc1` [Example 28, 5-[5-ethyl-1-[3-[4-(4-piperidyloxy)phenyl]propyl]imidazol-2-yl]-4-methyl-thieno[3,2-b]pyrrole hydrochloride]: the half-inhibitory concentration (IC50) was below 100 nM in assay [1], below 10 µM in assay [2] and below 20 µM in assay [3].

For `CCc1cnc(-c2cc3sccc3n2C)n1CCOc1ccc(OC2CCCNCC2)cc1` (stereo not drawn) [Example 26, 5-[1-[2-[4-(azepan-4-yloxy)phenoxy]ethyl]-5-ethyl-imidazol-2-yl]-4-methyl-thieno[3,2-b]pyrrole trifluoroacetate], the 50% inhibitory concentration (IC50) was below 100 nM in assay [1], below 10 µM in assay [2] and below 20 µM in assay [3].

`Cn1c(-c2ncc(C3CCC3)n2CCOc2ccc(OC3CCNCC3)cc2)cc2sccc21` [Example 30, 5-[5-cyclobutyl-1-[2-[4-(4-piperidyloxy)phenoxy]ethyl]imidazol-2-yl]-4-methyl-thieno[3,2-b]pyrrole hydrochloride]: the IC50 in assay [1] is below 100 nM; in assay [2], below 10 µM; in assay [3] it was below 20 µM.

For `CCc1c(-c2ccccc2)nc(-c2cc3sccc3n2C)n1CCOc1cccc(OC2CCNCC2)c1` [Example 32, 5-[5-ethyl-4-phenyl-1-[2-[3-(4-piperidyloxy)phenoxy]ethyl]imidazol-2-yl]-4-methyl-thieno[3,2-b]pyrrole], the figures for the concentration for half-maximal inhibition (IC50) in assay [1], in assay [2] and in assay [3] were below 100 nM, below 10 µM and below 20 µM, respectively.

Take `CCc1nc(-c2cc3sccc3n2C)n(CCOc2cccc(OC3CCNCC3)c2)c1-c1ccccc1` [Example 33, 5-[4-ethyl-5-phenyl-1-[2-[3-(4-piperidyloxy)phenoxy]ethyl]imidazol-2-yl]-4-methyl-thieno[3,2-b]pyrrole]: the IC50 in assay [1] was below 100 nM; in assay [2], below 10 µM; in assay [3], below 20 µM.
